# From patent US12528807B2, “Solid forms of {6-[(2-amino-3-chloropyridin-4-yl)sulfanyl]-3-[(3S,4S)-4-amino-3-methyl-2-oxa-8-azaspiro[4.5]decan-8-yl]-5-methylpyrazin-2-yl} methanol, a SHP2 inhibitor” (Revolution Medicines, Inc., priority 2019, dated 2026)
# Assay: Relative thermodynamic stability of the anhydrous polymorphs and transition temperatures between them (thermal techniques)
# Type: physicochemical
# Conditions: for Temperature at which the form is thermodynamically (physically) stable: approximate
# Method: Forms A, B, C, and D are anhydrous polymorphs of Compound 1. Thermal techniques provide data that the relative stability of the forms change with temperature. Both Forms A and C are enantiotropically related to each other and to Form D; Form A is thermodynamically stable above approximately 80° C., Form C is the stable form between approximately 80 and 43° C., and Form D is physically stable below approximately 43° C. […]
# Differential scanning calorimetry performed using TA instruments Q2000: Temperature calibration was performed using NIST-traceable indium metal. The sample was placed into an aluminum Tzero crimped pan and the weight was accurately recorded. A weighed aluminum pan configured as the sample pan was placed on the reference side of the cell. The samples were analyzed from −30 to 250° C. at a ramp rate of 10° C./min.
# Differential scanning calorimetry performed using Mettler-Toledo DSC3+: Temperature calibration was performed using adamantane, phenyl salicylate, indium, tin, and zinc. The sample was placed into a hermetically sealed or an open aluminum DSC pan, and the weight was accurately recorded. A weighed aluminum pan configured as the sample pan was placed on the reference side of the cell. The samples were analyzed from −30 to 250° C. at a ramp rate of 10° C./min. Although thermograms are plotted by reference temperature (x-axis), results are reported according to sample temperatures.
Structure (SMILES),"Conversion between Forms A, C, and D upon reaching the corresponding relevant temperatures",Relative Thermodynamic Stability of Polymorphs (above ~80° C.),Temperature at which the form is thermodynamically (physically) stable [°C],Temperature at which the form is thermodynamically (physically) stable (listed as Form A) [°C],Relative Thermodynamic Stability of Polymorphs (between ~43 and ~65° C.),Relative Thermodynamic Stability of Polymorphs (between ~65 and ~80° C.),Relationship to Form B (table of estimated transition point temperatures) (relative to Form B),Relative Thermodynamic Stability of Polymorphs (subambient up to ~43° C.),"Estimated Transition Point Temperature between Enantiotropic Polymorphs, to Form C (transition to Form C) [°C]","Estimated Transition Point Temperature between Enantiotropic Polymorphs, to Form D [°C]",Thermodynamic stability in words,Temperature at which the form is thermodynamically (physically) stable (listed as Form D) [°C]
"Cc1nc(N2CCC3(CC2)CO[C@@H](C)[C@H]3N)c(CO)nc1Sc1ccnc(N)c1Cl [Compound 1 Form A, {6-[(2-amino-3-chloropyridin-4-yl)sulfanyl]-3-[(3S,4S)-4-amino-3-methyl-2-oxa-8-azaspiro[4.5]decan-8-yl]-5-methylpyrazin-2-yl}methanol]",immediate (and reversible),A > (C and D and B),> 80,> 80,C > D > A > B,C > A > (D and B),monotropic,D > C > A > B,~80,~65,,
"Cc1nc(N2CCC3(CC2)CO[C@@H](C)[C@H]3N)c(CO)nc1Sc1ccnc(N)c1Cl [Compound 1 Form B, {6-[(2-amino-3-chloropyridin-4-yl)sulfanyl]-3-[(3S,4S)-4-amino-3-methyl-2-oxa-8-azaspiro[4.5]decan-8-yl]-5-methylpyrazin-2-yl}methanol]",,,,,,,,,,,metastable form at all temperatures,
"Cc1nc(N2CCC3(CC2)CO[C@@H](C)[C@H]3N)c(CO)nc1Sc1ccnc(N)c1Cl [Compound 1 Form C, {6-[(2-amino-3-chloropyridin-4-yl)sulfanyl]-3-[(3S,4S)-4-amino-3-methyl-2-oxa-8-azaspiro[4.5]decan-8-yl]-5-methylpyrazin-2-yl}methanol]",immediate (and reversible),A > (C and D and B),,,C > D > A > B,C > A > (D and B),,D > C > A > B,,~43,,
"Cc1nc(N2CCC3(CC2)CO[C@@H](C)[C@H]3N)c(CO)nc1Sc1ccnc(N)c1Cl [Compound 1 Form D, {6-[(2-amino-3-chloropyridin-4-yl)sulfanyl]-3-[(3S,4S)-4-amino-3-methyl-2-oxa-8-azaspiro[4.5]decan-8-yl]-5-methylpyrazin-2-yl}methanol]",immediate (and reversible),A > (C and D and B),< 43,,C > D > A > B,C > A > (D and B),,D > C > A > B,,,,< 43
